Laboratory results taken from patent publication US6489514B1, “(-)-Secoisolariciresinol as an antioxidant obtained from a new natural source namely stereospermum personatum” (Council of Scientific and Industrial Research, priority 2001, dated 2002).

Legend:
[1] = In vitro free radical scavenging antioxidant potency (DPPH); type: biochemical; details: 500 μM DPPH in ethanol, tris-HCl buffer pH 7.4, 45 minutes in dark, absorbency at 517 nm, triplicate
Method: Antioxidant activity of the compounds was tested for its capacity/potency to scavenge most widely used free radical, 1,1-diphenyl-2-picryl hyrazyl radical (DPPH). […] 200 μl of test compounds were reconstituted to 1 ml in tris-HCl buffer (pH 7.4). […] After incubation for 45 minutes in dark, the absorbency at 517 nm was recorder. Percent radical scavenging activity was calculated accordingly. All the readings were taken in triplicate.

[2] = Japanese Pat. No. JP0131J17; cited from earlier work
[3] = Japanese Pat No. JP02,101,011; cited from earlier work
[4] = biological target: T1, SHBG (Homo sapiens, UniProt P04278); details: Z. Naturforsch, C. Biosc. 997,52,834-843; cited from earlier work
T1 sequence (P04278 30-402): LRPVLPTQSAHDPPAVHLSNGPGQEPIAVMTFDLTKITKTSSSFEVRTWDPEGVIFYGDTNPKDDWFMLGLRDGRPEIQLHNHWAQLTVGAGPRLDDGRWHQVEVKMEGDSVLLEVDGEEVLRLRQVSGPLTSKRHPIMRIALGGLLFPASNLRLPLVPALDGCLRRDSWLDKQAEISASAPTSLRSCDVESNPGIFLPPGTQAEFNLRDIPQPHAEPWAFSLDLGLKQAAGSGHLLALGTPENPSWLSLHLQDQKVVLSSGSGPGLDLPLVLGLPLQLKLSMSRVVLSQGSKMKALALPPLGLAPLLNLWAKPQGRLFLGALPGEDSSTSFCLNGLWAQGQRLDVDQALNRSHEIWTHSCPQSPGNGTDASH

| Structure (SMILES) | 50% Radical scavenging concentration [1] | Activity: antitumor [2] | Activity: cardiotonic [3] | Activity: binding to SHBG [4] |
| --- | --- | --- | --- | --- |
| COc1cc(CC(CO)C(CO)Cc2ccc(O)c(OC)c2)ccc1O (single isomer, unassigned; (-)) [(−)-Secoisolariciresinol, 2,3Bis-[4-hydroxy-3-(methoxyphenyl)methyl]-1,4-butanediol] | 13.72 µg/mL | 1. Antitumor agent | 2. Cardiotonic | 3. Binding to SHBG |
| Cc1c(C)c2c(c(C)c1O)CCC(C)(CCCC(C)CCCC(C)CCCC(C)C)O2 (stereo not drawn) [DL α- Tocopherol, reference compound] | 47.80 µg/mL |  |  |  |
